Laboratory results from ChEMBL document CHEMBL1201862, “PubChem BioAssay data set” (2004).
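All cell lines were grown in 96-well plates and treated with compound for 48 hours. The concentration for 50% growth inhibition is given as GI50.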 Activity calls are given as the source filed them. Cut-off read from the data, not from the text of the source: active = GI50 up to about 1.1 µM and inactive = higher.

Assays:
Assay in all cases: DTP human tumour cell line panel, 48 h
[1] = test system: HOP-92
[2] = test system: SN12C
[3] = test system: CAKI-1
[4] = test system: MOLT-4
[5] = test system: SK-MEL-5
[6] = test system: UACC-62
[7] = test system: HOP-62
[8] = test system: SF-539
[9] = test system: EKVX
[10] = test system: OVCAR-4
[11] = test system: CCRF-CEM
[12] = test system: NCI-H522
[13] = test system: K562
[14] = test system: SK-MEL-28
[15] = test system: OVCAR-5
[16] = test system: COLO 205
[17] = test system: M14
[18] = test system: NCI-H460
[19] = test system: SK-OV-3
[20] = test system: HCT-15

Compound | GI50 [1] | GI50 [2] | GI50 [3] | GI50 [4] | GI50 [5] | GI50 [6] | GI50 [7] | GI50 [8] | GI50 [9] | GI50 [10] | GI50 [11] | GI50 [12] | GI50 [13] | GI50 [14] | GI50 [15] | GI50 [16] | GI50 [17] | GI50 [18] | GI50 [19] | GI50 [20] [µM]
CSc1nc2c(c(=O)[nH]1)N=C(c1ccc(Cl)cc1)CC(c1ccccc1)N2 (configuration not stated) | 18.4 µM (inactive) | 16.4 µM (inactive) | 20 µM (inactive) | 17.7 µM (inactive) | 13.3 µM (inactive) | > 10 µM (inactive) | 17.9 µM (inactive) | 19.2 µM (inactive) | 18.3 µM (inactive) | 11.5 µM (inactive) | 17.1 µM (inactive) | 14.5 µM (inactive) | 22.2 µM (inactive) | 17.3 µM (inactive) | 18.1 µM (inactive) | 19.8 µM (inactive) | 16.3 µM (inactive) | – | – | –
COc1c(-c2ccc(F)cc2)oc2cc(O)cc(O)c2c1=O | 35.6 µM (inactive) | 30.3 µM (inactive) | 24.3 µM (inactive) | 24.2 µM (inactive) | 16.5 µM (inactive) | – | 18.5 µM (inactive) | 19.8 µM (inactive) | 14.6 µM (inactive) | – | 29.4 µM (inactive) | 20.5 µM (inactive) | 38.9 µM (inactive) | 46.9 µM (inactive) | 25.5 µM (inactive) | 20.9 µM (inactive) | 34.8 µM (inactive) | 21.7 µM (inactive) | 30.5 µM (inactive) | 18.5
O=S(=O)(c1ccc(Br)cc1)N1CCN(S(=O)(=O)c2ccc(Br)cc2)CC1 | > 100 µM (inactive) | > 100 µM (inactive) | > 100 µM (inactive) | 1.71 µM (inactive) | > 100 µM (inactive) | > 100 µM (inactive) | > 100 µM (inactive) | – | > 100 µM (inactive) | > 100 µM (inactive) | > 100 µM (inactive) | > 100 µM (inactive) | 5.87 µM (inactive) | > 100 µM (inactive) | > 100 µM (inactive) | > 100 µM (inactive) | > 100 µM (inactive) | – | > 100 µM (inactive) | > 100
CC1(C)OC2[C@@H](CO[C@@]3([C@@H](O)CCO)OC(C)(C)O[C@@H]23)O1 (some centres not stated) | > 100 µM (inactive) | > 100 µM (inactive) | > 100 µM (inactive) | > 100 µM (inactive) | > 100 µM (inactive) | > 100 µM (inactive) | > 100 µM (inactive) | > 100 µM (inactive) | > 100 µM (inactive) | > 100 µM (inactive) | > 100 µM (inactive) | > 100 µM (inactive) | > 100 µM (inactive) | > 100 µM (inactive) | > 100 µM (inactive) | > 100 µM (inactive) | > 100 µM (inactive) | > 100 µM (inactive) | – | > 100
CCCCCCCCCCCCCCCCCCNc1ccn(C2OC(CO)C(OP(=O)(O)OCC(O)COP(=O)(O)OCC3OC(n4cc(F)c(NCCCCCCCCCCCCCCCCCC)nc4=O)CC3O)C2O)c(=O)n1 (configuration not stated) | > 50 µM (inactive) | > 50 µM (inactive) | > 50 µM (inactive) | – | > 50 µM (inactive) | > 50 µM (inactive) | > 50 µM (inactive) | > 50 µM (inactive) | > 50 µM (inactive) | > 50 µM (inactive) | – | > 50 µM (inactive) | > 50 µM (inactive) | > 50 µM (inactive) | > 50 µM (inactive) | > 50 µM (inactive) | > 50 µM (inactive) | > 50 µM (inactive) | > 50 µM (inactive) | > 50
CC(C)N(C(=O)C12C3(C(=O)C(C)(C)C)C4C5(C#N)C3C1(C(=O)C(C)(C)C)C5C42C(=O)C(C)(C)C)C(C)C (configuration not stated) | 66.2 µM (inactive) | > 100 µM (inactive) | > 100 µM (inactive) | > 100 µM (inactive) | > 100 µM (inactive) | > 100 µM (inactive) | > 100 µM (inactive) | > 100 µM (inactive) | > 100 µM (inactive) | > 100 µM (inactive) | > 100 µM (inactive) | > 100 µM (inactive) | > 100 µM (inactive) | > 100 µM (inactive) | > 100 µM (inactive) | > 100 µM (inactive) | > 100 µM (inactive) | > 100 µM (inactive) | – | > 100
O=S1(=O)CSc2ccc3ccccc3c2-c2c1ccc1ccccc21 | > 100 µM (inactive) | > 100 µM (inactive) | > 100 µM (inactive) | > 100 µM (inactive) | > 100 µM (inactive) | > 100 µM (inactive) | > 100 µM (inactive) | > 100 µM (inactive) | – | > 100 µM (inactive) | > 100 µM (inactive) | > 100 µM (inactive) | > 100 µM (inactive) | > 100 µM (inactive) | > 100 µM (inactive) | > 100 µM (inactive) | > 100 µM (inactive) | > 100 µM (inactive) | – | –
CCOC(=O)C1(c2ccccc2)CCCNCC1 (configuration not stated) | 75.2 µM (inactive) | 39.4 µM (inactive) | > 100 µM (inactive) | 45.9 µM (inactive) | 50.7 µM (inactive) | > 100 µM (inactive) | 32.4 µM (inactive) | – | > 100 µM (inactive) | > 100 µM (inactive) | 28.1 µM (inactive) | 7.91 µM (inactive) | > 100 µM (inactive) | > 100 µM (inactive) | 81.3 µM (inactive) | > 100 µM (inactive) | > 100 µM (inactive) | 29 µM (inactive) | > 100 µM (inactive) | 72.9
CC(C)(C)CC(C)(C)c1ccc(OCCOCC[N+](C)(C)Cc2ccccc2)cc1 [BENZETHONIUM CHLORIDE] | 1.88 µM (inactive) | 3.52 µM (inactive) | 10.1 µM (inactive) | 2.22 µM (inactive) | 1.39 µM (inactive) | 1.36 µM (inactive) | 8.93 µM (inactive) | – | 4.2 µM (inactive) | 2.06 µM (inactive) | 1.79 µM (inactive) | 1.66 µM (inactive) | 2.19 µM (inactive) | 1.86 µM (inactive) | 6.17 µM (inactive) | 1.49 µM (inactive) | 2.08 µM (inactive) | 3.05 µM (inactive) | 7.43 µM (inactive) | 20.5
O=C(Oc1cncc(Cl)c1)c1cc2ccccc2sc1=O | 71.4 µM (inactive) | 60.3 µM (inactive) | > 100 µM (inactive) | 23.7 µM (inactive) | 31.7 µM (inactive) | 29 µM (inactive) | 54.3 µM (inactive) | 18.5 µM (inactive) | > 100 µM (inactive) | 73.6 µM (inactive) | – | 19.5 µM (inactive) | 31.7 µM (inactive) | 46.5 µM (inactive) | > 100 µM (inactive) | 49.9 µM (inactive) | 33.3 µM (inactive) | 82.8 µM (inactive) | > 100 µM (inactive) | 38.5
CC1=NN(c2cccc(Cl)c2)C2(SCC(=O)N2c2nc3ccccc3s2)/C1=C\c1ccc(N(C)C)cc1 (configuration not stated) | 23.7 µM (inactive) | – | 85.9 µM (inactive) | 48.5 µM (inactive) | 39.7 µM (inactive) | – | 19.4 µM (inactive) | 52.2 µM (inactive) | > 100 µM (inactive) | 93.5 µM (inactive) | 66.1 µM (inactive) | 65.8 µM (inactive) | 43.8 µM (inactive) | > 100 µM (inactive) | > 100 µM (inactive) | – | > 100 µM (inactive) | 20.9 µM (inactive) | 17.5 µM (inactive) | 56.1
O=C1Nc2ccccc2/C1=N/NC(=S)N1CCCCC1 | 2.25 µM (inactive) | 2.17 µM (inactive) | 0.904 µM (active) | 0.354 µM (active) | 0.0667 µM (active) | 1.15 µM (inactive) | 0.3 µM (active) | 0.082 µM (active) | 1.31 µM (inactive) | 1.53 µM (inactive) | – | 2.79 µM (inactive) | – | 2.17 µM (inactive) | 4.05 µM (inactive) | 0.774 µM (active) | 0.29 µM (active) | 0.0841 µM (active) | 2.01 µM (inactive) | 0.19
CC[C@]12C=CCN3CCC4(c5cc(/N=N/c6ccccc6)c(OC)cc5N(C)[C@H]4[C@@](O)(C(=O)OC)[C@@H]1OC(C)=O)[C@@H]32 (some centres not stated) | 15.4 µM (inactive) | 18.6 µM (inactive) | 24.2 µM (inactive) | 13.6 µM (inactive) | 19.9 µM (inactive) | 14.5 µM (inactive) | 17.5 µM (inactive) | 21 µM (inactive) | 16.5 µM (inactive) | 17.1 µM (inactive) | – | 16.1 µM (inactive) | 18.8 µM (inactive) | 20.3 µM (inactive) | 17 µM (inactive) | 25.2 µM (inactive) | 20.6 µM (inactive) | 16 µM (inactive) | – | 17.3
CCN(CC)CCC(=O)/C=C/c1ccccc1 | 10.4 µM (inactive) | 15.5 µM (inactive) | 3.27 µM (inactive) | 6.3 µM (inactive) | 18.4 µM (inactive) | – | 20.3 µM (inactive) | 19.9 µM (inactive) | 13.9 µM (inactive) | 21.1 µM (inactive) | 3.57 µM (inactive) | 4.51 µM (inactive) | 3.05 µM (inactive) | 15.2 µM (inactive) | 17.5 µM (inactive) | 7.11 µM (inactive) | 15.7 µM (inactive) | 12.1 µM (inactive) | – | 15.6
NS(=O)(=O)c1nnc(NSc2ccc([N+](=O)[O-])cc2)s1 | > 100 µM (inactive) | > 100 µM (inactive) | 92.3 µM (inactive) | 40.8 µM (inactive) | > 100 µM (inactive) | > 100 µM (inactive) | > 100 µM (inactive) | – | > 100 µM (inactive) | 48.9 µM (inactive) | – | 23.7 µM (inactive) | > 100 µM (inactive) | > 100 µM (inactive) | > 100 µM (inactive) | > 100 µM (inactive) | > 100 µM (inactive) | > 100 µM (inactive) | > 100 µM (inactive) | > 100
